From patent publication US6794408B2, “Drechsleranol derivatives, processes for their preparation and their use” (Aventis Pharma Deutschland GmbH, priority 2002, dated 2004) come the findings set out here.

Assay [1] has as its target JNK-3 (Homo sapiens, UniProt P53779). In words: JNK-3 assay (HTRF, JNK-3/GST-ATF2). The following applies: ATP 15 μM, 37° C., 20 minutes. The format is biochemical. On the procedure: The assay is carried out on a CyBio pipetter system in a 384-hole plate format. The assay contains 10 μL of sample (extract or pure substance, for example a compound of formula (II) or of formula (III)) in 3% DMSO, 10 μL of an enzyme/substrate mixture (JNK-3/GST-ATF2) and 10 μL of ATP in a final volume of 30 μL. After incubation at 37° C. for 20 minutes, 50 μL of the HTRF antibody mixture (XL665-anti-GST/(Eu)cryptate anti-P-ATF2) are added. After 120 minutes at room temperature, the signal emission of the energy transfer and of europium at 665 and 615 nm is measured after the samples have been stimulated at 340 nm in a Victor^2 (WALLAC).
Buffer I for the Dilution of JNK3, GST-ATF2, ATP:
Buffer II for the Dilution of the HTRF Reagents:
Each plate contains 16 positive controls (maximum energy transfer, buffer I instead of samples), 8 blank controls (minimum energy transfer, buffer II instead of ATP) and 8 holes which contain EDTA 200 μM.
The results are calculated as follows:
Firstly, the signal ratio=(intensity (665 nm)/intensity (615 nm)) is determined. A blank correction is then made using the following formula:
delta F(%)=[(ratio (sample)−ratio(minimum))/(ratio (minimum))]×100
The activity of the samples is then calculated in the following manner:
Inhibition (%)=100×[1−(delta F(sample)/delta F(maximum))]
In general terms: Time-resolved FRET reads energy transfer from a long-lived donor to a nearby acceptor.

Assay [2] concerns the target hCK1ε (Homo sapiens, UniProt P49674). The assay is described as follows: hCK1ε assay (33P-ATP, casein-coated plates). The following applies: 0.4 μM cold ATP, 37° C., one hour. Type of assay: biochemical. On the procedure: The assay is carried out in a Jobi-Well (CyBio) and Biomek 2000 pipetter system in the 384-hole plate format. The 384-hole plates are coated with 50 μL per well of a casein solution of the concentration 100 μg/mL in coating buffer (corresponds to 5 μg of casein per well, casein Sigma) and stored overnight at 4° C. Washing four times with 90 μL of wash solution 1 (50 mM HEPES pH 7.4 and 150 mM NaCl) is then carried out. The reaction is carried out in a final volume of 50 μL. During the course of this, 10 μL of dilute natural substance extract in each case, for example a compound of formula (II) or a compound of formula (III), 20 μL of hCK1ε enzyme solution (corresponds to 29 ng of […] per well) and 20 μL of ATP solution (final concentration: 0.4 μCi of ^33P-γ-ATP radiolabeled (“hot”) and 0.4 μM of cold ATP per well) are pipetted onto the coated plates. The plates are then incubated at 37° C. for one hour. The plates are then washed four times with 75 μL of wash solution 2 (phosphoric acid, 3%) and measured for 30 seconds in a MicroBeta Trilux counter (WALLAC).
hCK1ε Enzyme Solution: 1.45 μg of Recombinant hCK1ε per mL of Kinase Buffer
ATP Solution: 20 μCi/mL of ^33P-γ-ATP and 1 μM of Cold ATP […]
The inhibition of a sample can be calculated according to the following formula: […]

Sequence of JNK-3 (P53779 whole entry): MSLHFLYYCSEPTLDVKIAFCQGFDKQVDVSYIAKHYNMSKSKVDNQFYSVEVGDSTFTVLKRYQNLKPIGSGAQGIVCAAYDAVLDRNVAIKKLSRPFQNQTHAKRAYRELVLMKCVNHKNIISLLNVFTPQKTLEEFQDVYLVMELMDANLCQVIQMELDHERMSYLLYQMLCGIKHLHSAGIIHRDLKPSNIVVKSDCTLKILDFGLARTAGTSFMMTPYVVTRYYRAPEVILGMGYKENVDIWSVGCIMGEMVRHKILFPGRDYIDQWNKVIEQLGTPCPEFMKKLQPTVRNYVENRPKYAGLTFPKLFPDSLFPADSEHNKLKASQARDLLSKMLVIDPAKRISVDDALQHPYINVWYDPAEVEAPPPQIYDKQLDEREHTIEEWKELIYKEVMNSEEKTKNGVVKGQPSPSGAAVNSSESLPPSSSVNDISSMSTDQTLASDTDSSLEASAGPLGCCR
Sequence of hCK1ε (P49674 whole entry): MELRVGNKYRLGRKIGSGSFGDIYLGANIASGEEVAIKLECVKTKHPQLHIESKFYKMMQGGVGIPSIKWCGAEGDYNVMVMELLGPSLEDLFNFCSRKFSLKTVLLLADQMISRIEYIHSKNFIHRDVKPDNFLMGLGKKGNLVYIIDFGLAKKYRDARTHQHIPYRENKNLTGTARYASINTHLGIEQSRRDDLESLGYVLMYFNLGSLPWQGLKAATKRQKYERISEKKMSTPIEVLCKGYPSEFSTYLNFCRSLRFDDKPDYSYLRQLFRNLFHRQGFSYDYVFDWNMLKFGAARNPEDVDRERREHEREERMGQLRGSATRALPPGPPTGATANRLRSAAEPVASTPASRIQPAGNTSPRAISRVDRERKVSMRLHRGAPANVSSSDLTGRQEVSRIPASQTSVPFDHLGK

For `Oc1cccc2ccc3c4ccc5cccc(O)c5c4oc3c12` [Compound III], in assay [1], the 50% inhibitory concentration (IC50) – broadly, the midpoint of a concentration-inhibition curve – came out at 2.8 µM.
As for `OCC(O)C(O)C(O)C(O)C(O)c1cc2c3ccc4cccc(O)c4c3oc2c2c(O)cccc12` (stereo not drawn) [Compound II], the IC50 in assay [1] worked out at 1.1 µM; in assay [2], 2.9 µM.
